# Literature values, collected in patent US20250073171A1, “DRUG DELIVERY SYSTEM FOR THE TREATMENT OF FEMALE SEXUAL INTEREST AND AROUSAL DISORDER” (Freya Pharma Solutions Holding B.V., priority 2023, published 2025).
# What was measured:
# SHBG = molecular target: T1, SHBG (Homo sapiens, UniProt P04278); conditions: bloodstream
# T1 sequence (P04278 30-402): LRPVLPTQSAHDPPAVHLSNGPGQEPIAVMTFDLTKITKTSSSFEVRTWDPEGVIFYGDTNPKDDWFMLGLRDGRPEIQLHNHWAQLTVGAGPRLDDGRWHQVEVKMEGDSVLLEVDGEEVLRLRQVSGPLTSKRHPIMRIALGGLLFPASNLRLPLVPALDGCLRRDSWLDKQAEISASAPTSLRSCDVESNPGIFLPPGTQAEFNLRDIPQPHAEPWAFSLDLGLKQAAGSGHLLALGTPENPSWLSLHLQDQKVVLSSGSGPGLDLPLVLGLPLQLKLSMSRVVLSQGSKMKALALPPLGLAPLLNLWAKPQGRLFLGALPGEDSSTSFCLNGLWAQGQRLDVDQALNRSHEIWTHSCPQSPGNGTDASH
# albumin = albumin (Homo sapiens, UniProt P02768); conditions: bloodstream
# albumin, sequence (P02768 25-609): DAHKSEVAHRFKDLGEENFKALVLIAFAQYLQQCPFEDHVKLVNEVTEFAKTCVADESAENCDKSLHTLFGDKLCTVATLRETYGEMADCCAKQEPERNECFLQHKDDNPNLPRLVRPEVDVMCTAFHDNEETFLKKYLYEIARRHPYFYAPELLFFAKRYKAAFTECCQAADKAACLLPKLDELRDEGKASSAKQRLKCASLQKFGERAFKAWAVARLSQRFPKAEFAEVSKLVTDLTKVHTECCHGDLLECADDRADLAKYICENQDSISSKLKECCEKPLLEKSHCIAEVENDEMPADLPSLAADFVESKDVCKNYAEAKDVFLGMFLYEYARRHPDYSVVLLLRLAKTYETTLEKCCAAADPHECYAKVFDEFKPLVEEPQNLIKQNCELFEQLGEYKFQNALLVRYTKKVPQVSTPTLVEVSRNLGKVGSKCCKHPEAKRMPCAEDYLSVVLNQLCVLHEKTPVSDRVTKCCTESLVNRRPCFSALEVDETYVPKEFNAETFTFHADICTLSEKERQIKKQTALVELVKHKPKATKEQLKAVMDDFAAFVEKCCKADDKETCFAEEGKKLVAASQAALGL
compound,measurement,setting,value
"C[C@]12CC[C@H]3[C@@H](CCC4=CC(=O)CC[C@@]43C)[C@@H]1CC[C@@H]2O [testosterone, 17-[beta]-hydroxyandrost-4-en-3-one]","SHBG-bound testosterone, percentage of total testosterone",SHBG,60-70%
same,"albumin-bound testosterone, percentage of total testosterone",albumin,30-40%
same,"free testosterone, percentage of total testosterone",bloodstream,1-2%
same,T1/2 of free testosterone,metabolism of free testosterone,approximately 10 min
